Source: patent EP4545550B1, “INSECT NEUROPEPTIDES” (Solasta Bio Limited, priority 2023, dated 2025)

Test system: Spodoptera frugiperda
Test: Lepidoptera artificial diet assay
Format: in vivo
Settings: unformulated peptide, final concentration 1x10^-4 M in artificial diet, one L1 larva per cell, n=10, after 168 hours; compared to the insecticide DDT and negative control vehicle
Excerpt: Frontier Lepidoptera artificial diet was made up by preparing agar at 1% and then mixing it with artificial diet powder. Peptide solution was aliquoted in 10 cells and diet poured straight onto it. The final concentration of the peptide was 1x10^-4 M, and each peptide was aliquoted in 10 cells. Once the diet solidified and cooled down, one L1 larvae was infested in each cell. The trays were sealed with heat and let larva were allowed to develop for 168 hrs. Finally, pupation and mortality were scored for. Lepidoptera artificial diet assays were performed with SB-P-80, and compared to a negative control vehicle and the insecticide dichlorodiphenyltrichloroethane (DDT).

Substance: H-NADEDQQQSVDFTPRL-NH2 [SB-P-80, [Hy]-NADEDQQQSVDFTPRL-[NH2]]
- activity (pupation and mortality scored): much higher activity
